# Assay results: patent US20120165403A1, “METHODS OF INHIBITING THE ACTIVITY OF HSP90 AND/OR ARYL HYDROCARBON RECEPTOR” (UNIVERSITY OF ROCHESTER, priority 2004, published 2012)
# Tests used:
# [1] = molecular target: T1, AhR/Arnt complex (Mus musculus, UniProt P30561); test: AhR/Arnt complex formation by immunoprecipitation in RRL; type: biochemical, murine; settings: 200 μm EGCG, with or without 1 nM TCDD, anti-AhR immunoprecipitation
# T1 construct: made in house; host or cells: TNT rabbit reticulocyte lysate
# T1 sequence (P30561 10-805 limits assumed): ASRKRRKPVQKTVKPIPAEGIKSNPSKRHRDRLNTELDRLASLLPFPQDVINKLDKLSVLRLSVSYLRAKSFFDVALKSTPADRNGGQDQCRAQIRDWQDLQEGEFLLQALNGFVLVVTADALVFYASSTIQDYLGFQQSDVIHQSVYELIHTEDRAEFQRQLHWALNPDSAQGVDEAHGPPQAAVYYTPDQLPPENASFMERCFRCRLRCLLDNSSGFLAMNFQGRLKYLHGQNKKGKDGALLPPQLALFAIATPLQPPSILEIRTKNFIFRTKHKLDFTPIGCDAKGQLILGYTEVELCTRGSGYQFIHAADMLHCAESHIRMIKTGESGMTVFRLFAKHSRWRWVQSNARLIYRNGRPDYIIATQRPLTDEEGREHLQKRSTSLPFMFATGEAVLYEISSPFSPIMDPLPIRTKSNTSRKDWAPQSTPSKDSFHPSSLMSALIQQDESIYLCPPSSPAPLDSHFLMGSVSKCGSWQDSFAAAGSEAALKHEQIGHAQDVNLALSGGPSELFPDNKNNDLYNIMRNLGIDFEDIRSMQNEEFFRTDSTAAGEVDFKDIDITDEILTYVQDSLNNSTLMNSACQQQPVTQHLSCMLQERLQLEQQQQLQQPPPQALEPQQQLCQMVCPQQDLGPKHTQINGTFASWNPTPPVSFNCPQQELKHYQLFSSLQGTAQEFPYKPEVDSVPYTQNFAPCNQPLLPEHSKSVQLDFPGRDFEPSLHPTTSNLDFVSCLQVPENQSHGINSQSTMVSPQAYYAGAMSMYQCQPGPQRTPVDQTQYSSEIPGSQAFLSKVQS
# From the text: Murine AhR and ARNT cDNA (obtained from J. Whitlock and O. Hankinson, respectively) were inserted into pcDNA3 (Invitrogen, Carlsbad, Calif.). Chicken hsp90 constructs (FIG. 5), c90711hsp (wild-type), c90G94D (wild-type point mutant gly94→Asp (Grenert et al., J. Biol. Chem. 272:23843-23850 (1997), which is hereby incorporated by reference in its entirety), c90D92A (wild-type point mutant Asp92→Ala (Sullivan et al., J. Biol. Chem. 268:20373-20379 (1993), which is hereby incorporated by reference in its entirety), c90N221 (wild-type truncation mutant encoding a.a. 221-728 (Sullivan et al., J. Biol. Chem. 268:20373-20379 (1993), which is hereby incorporated by reference in its entirety)), c90N303 (a.a. 303-728) and c90N538 (a.a. 538-728) were kind gifts from Dr. D. Toft (Rochester, Minn.). The C-terminal truncation mutant c900507 (a.a. 1-221) was obtained from Dr. L. Neckers (Rockville, Md.) (Grenert et al., J. Biol. Chem. 272:23843-23850 (1997); Marcu et al., J. Biol. Chem. 275:37181-37186 (2000), which are hereby incorporated by reference in their entirety). Human p23 cDNA was excised from pQE80-p23 (obtained from W. Chan Stockton, Calif.) by sequential digests using the restriction enzymes Sad (3′-end) and BamHI (5′-end) and inserted into the similarly digested pET28a (Novagen, Madison, Wis.). […]
# [2] = molecular target: chicken hsp90 (Gallus gallus, UniProt P11501); test: Trypsin treatment of in vitro translated hsp90; type: biochemical; set-up: made in house; host or cells: TNT rabbit reticulocyte lysate, 35S-labelled; settings: in absence of AhR or ARNT, trypsin 10 minutes at room temperature
# Method: Chicken hsp90 was translated in vitro using the TNT RRL system as described supra in the presence of [^35S]Methionine, diluted, incubated with DMSO or EGCG, and treated with trypsin at indicated concentrations for 10 minutes at room temperature. All samples were separated by 10% SDS-PAGE, transferred to PVDF membrane, and visualized by phosphorImager. Results of the experiment are illustrated in FIG. 13. […] Therefore, the ability of EGCG to affect hsp90 conformation is not dependent on the presence of AhR or ARNT.
structure (smiles),measurement,setting,value
"O=C(O[C@@H]1Cc2c(O)cc(O)cc2O[C@@H]1c1cc(O)c(O)c(O)c1)c1cc(O)c(O)c(O)c1 [EGCG, epigallocatechin gallate]",effect on AhR/Arnt complex formation,[1],disrupting AhR/Arnt complex formation
same,effect on hsp90 conformation (trypsin treatment),[2],altered conformation of hsp90
